A short description of one data set: Plasma pharmacokinetics of the parent compound after a single oral dose of prodrug. As to conditions: single oral dose 10 mg/kg, fasted male Sprague Dawley rats; plasma analyzed for the parent compound; study duration 8 h. In kind it is in vivo. Here is the method:
Plasma pharmacokinetics of compounds was determined using three male Sprague Dawley rats following a single oral dose administration. All animals were placed in a rat metabolic cage, isolated, and fasted approximately 15 hours prior to dosing. Identifying markers were placed on each animal. Each animal was weighed prior to dose administration. Animals were administered orally with a solution formulation of test compound either in water or a combination of water/propylene glycol, at a dose of 10 mg/kg. Gavage needles were attached to syringes and filled with appropriate amount of test article to be dosed. Blood samples (approximately 500 μL) were collected from three rats at pre-dose (time 0), 0.5, 1, 2, 4, 8, 12 and 24 hr, respectively, depending on study duration. Samples were collected into labeled micro centrifuge tubes containing (heparin solution) as an anticoagulant. Plasma was immediately harvested from the blood by centrifugation at 14,000 rpm for 3 min at 4° C., and stored below −70° C. until bioanalysis. Individual plasma samples were analyzed for the parent compound, 3-[2-(4-carbamimidoyl-phenylcarbamoyl)-5-methoxy-4-vinyl-phenyl]-6-(cyclopropylmethyl-carbamoyl)-pyridine-2-carboxylic acid. As shown in Table-1, the test compounds yielded varying degrees of exposure to the parent compound. The test compounds generally provided for improved bioavailability of the parent compound as compared to dosing of the parent compound in aqueous solutions.
As for `C=Cc1cc(C(=O)Nc2ccc(C(=N)N)cc2)c(-c2ccc(C(=O)NCC3CC3)nc2C(=O)OC[C@H](C)OC(=O)[C@@H](N)C(C)C)cc1OC` (single isomer, unassigned) [Compound 18f], the “AUC0-last hour (area under the curve)” value was “A (A = 0-1,000 ng/mL)”.
For `C=Cc1cc(C(=O)Nc2ccc(C(=N)N)cc2)c(-c2ccc(C(=O)NCC3CC3)nc2C(=O)OC[C@@H](C)OC(=O)[C@@H](N)C(C)C)cc1OC` (single isomer, unassigned) [Compound 18g], the “AUC0-last hour (area under the curve)” value is given as “A (A = 0-1,000 ng/mL)”.
Regarding `C=Cc1cc(C(=O)Nc2ccc(C(=N)N)cc2)c(-c2ccc(C(=O)NCC3CC3)nc2C(=O)OC)cc1OC.CS(=O)(=O)O` [Compound 1o, Methyl 3-[2-(4-carbamimidoylphenylcarbamoyl)-5-methoxy-4-vinylphenyl]-6-(cyclopropylmethylcarbamoyl)pyridine-2-carboxylate methanesulfonate], the “AUC0-last hour (area under the curve)” value is reported as “A (A = 0-1,000 ng/mL)”.
In the case of `C=Cc1cc(C(=O)Nc2ccc(C(=N)NC(=O)OCCCCCC)cc2)c(-c2ccc(C(=O)NCC3CC3)nc2C(=O)OCCN2CCOCC2)cc1OC.Cl` [Compound 6a, 2-morpholinoethyl 6-((cyclopropylmethyl)carbamoyl)-3-(2-((4-(N-((hexyloxy)carbonyl)carbamimidoyl)phenyl)carbamoyl)-5-methoxy-4-vinylphenyl)picolinate hydrochloride], the “AUC0-last hour (area under the curve)” value is “A (A = 0-1,000 ng/mL)”.
The same measure, in the same setting: under `C=Cc1cc(C(=O)Nc2ccc(C(N)=NO)cc2)c(-c2ccc(C(=O)NCC3CC3)nc2C(=O)O)cc1OC` [Compound 9c, 6-((cyclopropylmethyl)carbamoyl)-3-(2-((4-(N′-hydroxycarbamimidoyl)phenyl)carbamoyl)-5-methoxy-4-vinylphenyl)picolinic acid] stands “A (A = 0-1,000 ng/mL)”.
On to `C=Cc1cc(C(=O)Nc2ccc(C(=N)N)cc2)c(-c2ccc(C(=O)NCC3CC3)nc2C(=O)OCC(C)OC(=O)[C@@H](N)C(C)C)cc1OC` (stereo partly drawn) [Compound 18e, 2-(((S)-2-amino-3-methylbutanoyl)oxy)propyl 3-(2-((4-carbamimidoylphenyl)carbamoyl)-5-methoxy-4-vinylphenyl)-6-((cyclopropylmethyl)carbamoyl)picolinate], for which the “AUC0-last hour (area under the curve)” value is given as “A (A = 0-1,000 ng/mL)”.
Regarding `C=Cc1cc(C(=O)Nc2ccc(C(=N)NC(=O)OC(C)C)cc2)c(-c2ccc(C(=O)NCC3CC3)nc2C(=O)OC)cc1OC` [Compound 20b, methyl 6-((cyclopropylmethyl)carbamoyl)-3-(2-((4-(N-(isopropoxycarbonyl)carbamimidoyl)phenyl)carbamoyl)-5-methoxy-4-vinylphenyl)picolinate], the “AUC0-last hour (area under the curve)” value was “A (A = 0-1,000 ng/mL)”.
For the molecule `C=Cc1cc(C(=O)Nc2ccc(C(=N)N)cc2)c(-c2ccc(C(=O)NCC3CC3)nc2C(=O)OC(C)OC(=O)C(C)(C)C)cc1OC` (stereo not drawn) [Compound 22d, 1-(pivaloyloxy)ethyl 3-(2-((4-carbamimidoylphenyl)carbamoyl)-5-methoxy-4-vinylphenyl)-6-((cyclopropylmethyl)carbamoyl)picolinate], the “AUC0-last hour (area under the curve)” value is listed as “A (A = 0-1,000 ng/mL)”.
The same measure, in the same setting: under `C=Cc1cc(C(=O)Nc2ccc(C(=N)N)cc2)c(-c2ccc(C(=O)NCC3CC3)nc2C(=O)O)cc1OC` [Compound 23e, 3-(2-((4-carbamimidoylphenyl)carbamoyl)-5-methoxy-4-vinylphenyl)-6-((cyclopropylmethyl)carbamoyl)picolinic acid] stands “B (B = 1,001-10,000 ng/mL)”.
Still for that read-out and setting: for `C=Cc1cc(C(=O)Nc2ccc(C(=N)NC(=O)OCCCCCC)cc2)c(-c2ccc(C(=O)NCC3CC3)nc2C(=O)O)cc1OC` [Compound 24c, 6-((cyclopropylmethyl)carbamoyl)-3-(2-((4-(N-((hexyloxy)carbonyl)carbamimidoyl)phenyl)carbamoyl)-5-methoxy-4-vinylphenyl)picolinic acid] the value was “A (A = 0-1,000 ng/mL)”; for `C=Cc1cc(C(=O)Nc2ccc(C(=N)NC(=O)OCC)cc2)c(-c2ccc(C(=O)NCC3CC3)nc2C(=O)OCc2oc(=O)oc2C)cc1OC` [Compound 34a, (5-methyl-2-oxo-1,3-dioxol-4-yl)methyl 6-((cyclopropylmethyl)carbamoyl)-3-(2-((4-(N-(ethoxycarbonyl)carbamimidoyl)phenyl)carbamoyl)-5-methoxy-4-vinylphenyl)picolinate], “B (B = 1,001-10,000 ng/mL)”.

Still in this data set, the particulars now being: single oral dose 10 mg/kg, fasted male Sprague Dawley rats; plasma analyzed for the parent compound; study duration 12 h.
Consider `C=Cc1cc(C(=O)Nc2ccc(C(=N)N)cc2)c(-c2ccc(C(=O)NCC3CC3)nc2C(=O)OCCN2CCOCC2)cc1OC.Cl` [Compound 2d, 2-morpholinoethyl 3-(2-((4-carbamimidoylphenyl)carbamoyl)-5-methoxy-4-vinylphenyl)-6-((cyclopropylmethyl)carbamoyl)picolinate hydrochloride], for which the “AUC0-last hour (area under the curve)” value was “A (A = 0-1,000 ng/mL)”.
For the molecule `C=Cc1cc(C(=O)Nc2ccc(C(=N)N)cc2)c(-c2ccc(C(=O)NCC3CC3)nc2C(=O)OCOC(=O)[C@@H](N)C(C)C)cc1OC.O=C(O)C(F)(F)F` [Compound 10e, (S)-((2-amino-3-methylbutanoyl)oxy)methyl 3-(2-((4-carbamimidoylphenyl)carbamoyl)-5-methoxy-4-vinylphenyl)-6-((cyclopropylmethyl)carbamoyl)picolinate trifluoroacetate], the “AUC0-last hour (area under the curve)” value is “B (B = 1,001-10,000 ng/mL)”.
As to `C=Cc1cc(C(=O)Nc2ccc(C(=N)N)cc2)c(-c2ccc(C(=O)NCC3CC3)nc2C(=O)OCOC(=O)OC(C)C)cc1OC` [Compound 14d, ((isopropoxycarbonyl)oxy)methyl 3-(2-((4-carbamimidoylphenyl)carbamoyl)-5-methoxy-4-vinylphenyl)-6-((cyclopropylmethyl)carbamoyl)picolinate], the “AUC0-last hour (area under the curve)” value is “A (A = 0-1,000 ng/mL)”.
The same measure, in the same setting: for `C=Cc1cc(C(=O)Nc2ccc(C(=N)N)cc2)c(-c2ccc(C(=O)NCC3CC3)nc2C(=O)OCOC(=O)C(C)(C)C)cc1OC` [Compound 15d, (pivaloyloxy)methyl 3-(2-((4-carbamimidoylphenyl)carbamoyl)-5-methoxy-4-vinylphenyl)-6-((cyclopropylmethyl)carbamoyl)picolinate] the value was “A (A = 0-1,000 ng/mL)”; for `C=Cc1cc(C(=O)Nc2ccc(C(=N)N)cc2)c(-c2ccc(C(=O)NCC3CC3)nc2C(=O)OCc2oc(=O)oc2C)cc1OC` [Compound 19d, (5-methyl-2-oxo-1,3-dioxol-4-yl)methyl 3-(2-((4-carbamimidoylphenyl)carbamoyl)-5-methoxy-4-vinylphenyl)-6-((cyclopropylmethyl)carbamoyl)picolinate], “A (A = 0-1,000 ng/mL)”; for `C=Cc1cc(C(=O)Nc2ccc(C(=N)NC(=O)OC(C)OC(C)=O)cc2)c(-c2ccc(C(=O)NCC3CC3)nc2C(=O)O)cc1OC` (stereo not drawn) [Compound 23f, 3-(2-((4-(N-((1-acetoxyethoxy)carbonyl)carbamimidoyl)phenyl)carbamoyl)-5-methoxy-4-vinylphenyl)-6-((cyclopropylmethyl)carbamoyl)picolinic acid], “B (B = 1,001-10,000 ng/mL)”.
Turning to `C=Cc1cc(C(=O)Nc2ccc(C(=N)N)cc2)c(-c2ccc(C(=O)NCC3CC3)nc2C(=O)OC(C)OC(=O)C(C)C)cc1OC` (stereo not drawn) [Compound 29d, 1-(isobutyryloxy)ethyl 3-(2-(4-carbamimidoylphenylcarbamoyl)-5-methoxy-4-vinylphenyl)-6-(cyclopropylmethylcarbamoyl)picolinate], the “AUC0-last hour (area under the curve)” value is on record as “B (B = 1,001-10,000 ng/mL)”.
Turning to `C=Cc1cc(C(=O)Nc2ccc(C(=N)NC(=O)OCCCCCC)cc2)c(-c2ccc(C(=O)NCC3CC3)nc2C(=O)OCOC(=O)[C@@H](N)C(C)C)cc1OC` [Compound 31b, (S)-((2-amino-3-methylbutanoyl)oxy)methyl 6-((cyclopropylmethyl)carbamoyl)-3-(2-((4-(N-((hexyloxy)carbonyl)carbamimidoyl)phenyl)carbamoyl)-5-methoxy-4-vinylphenyl)picolinate], the “AUC0-last hour (area under the curve)” value is listed as “B (B = 1,001-10,000 ng/mL)”.
In the case of `C=Cc1cc(C(=O)Nc2ccc(C(=N)NC(=O)OCC)cc2)c(-c2ccc(C(=O)NCC3CC3)nc2C(=O)OCOC(=O)[C@@H](N)C(C)C)cc1OC` [Compound 32c, (S)-((2-amino-3-methylbutanoyl)oxy)methyl 6-((cyclopropylmethyl)carbamoyl)-3-(2-((4-(N-(ethoxycarbonyl)carbamimidoyl)phenyl)carbamoyl)-5-methoxy-4-vinylphenyl)picolinate], the “AUC0-last hour (area under the curve)” value is “B (B = 1,001-10,000 ng/mL)”.
With `C=Cc1cc(C(=O)Nc2ccc(C(=N)NC(=O)OC(C)OC(=O)[C@@H](N)C(C)C)cc2)c(-c2ccc(C(=O)NCC3CC3)nc2C(=O)O)cc1OC` (stereo partly drawn) [Compound 33c, 3-(2-((4-(N-((1-(((S)-2-amino-3-methylbutanoyl)oxy)ethoxy)carbonyl)carbamimidoyl)phenyl)carbamoyl)-5-methoxy-4-vinylphenyl)-6-((cyclopropylmethyl)carbamoyl)picolinic acid], the “AUC0-last hour (area under the curve)” value was “B (B = 1,001-10,000 ng/mL)”.
